This is an account of results in US12331044B2, “Inhibitors of histone deacetylase useful for the treatment or prevention of HIV infection” (Merck Sharp & Dohme LLC, priority 2018, dated 2025).

pIC50: −log10 of the molar value. Read-outs that look alike come from different tables or passages of the source.

One assay concerns KARN cells (Jurkat 2C4). Description: cells. Conditions: Homo sapiens.
For assay [1], the target named is human HDAC3/SMRT heterodimer (Homo sapiens (Human), UniProt O15379). Description: biochemical.
The next assay addresses human HDAC2 (Homo sapiens (Human), UniProt Q92769). Description: HDAC2 inhibition assay (modified FLUOR DE LYS, 384-well). In kind it is biochemical. Conditions: […] nM enzyme, 40 μM substrate BML-KI104, 3 h pre-incubation; read-out: HDAC2 IC50.
For the next assay, the target named is human HDAC1 (Homo sapiens (Human), UniProt Q13547). Put plainly: biochemical.
A further assay deals with HDAC6 (Homo sapiens (Human), UniProt Q9UBN7). Description: biochemical.
A further assay concerns the target human HDAC8 (Homo sapiens (Human), UniProt Q9BY41). Description: HDAC8 inhibition assay (modified FLUOR DE LYS, 384-well). In kind it is biochemical. Conditions: […] nM enzyme, 200 μM substrate BML-KI178, 3 h pre-incubation; read-out: HDAC8 IC50.
[2] abbreviates: read-out: Karn EC50 nM 0.1% NHS, 0.1% normal human serum, luciferase induction, 2 μM SAHA = 100%.
The mark [3] stands for this setting: read-out: Karn EC50 nM 5% NHS, 5% normal human serum, luciferase induction, 2 μM SAHA = 100%.
Setting [4] is: read-out: Karn EC50 nM 0.1% NHS.

human HDAC2, sequence (Q92769 whole entry): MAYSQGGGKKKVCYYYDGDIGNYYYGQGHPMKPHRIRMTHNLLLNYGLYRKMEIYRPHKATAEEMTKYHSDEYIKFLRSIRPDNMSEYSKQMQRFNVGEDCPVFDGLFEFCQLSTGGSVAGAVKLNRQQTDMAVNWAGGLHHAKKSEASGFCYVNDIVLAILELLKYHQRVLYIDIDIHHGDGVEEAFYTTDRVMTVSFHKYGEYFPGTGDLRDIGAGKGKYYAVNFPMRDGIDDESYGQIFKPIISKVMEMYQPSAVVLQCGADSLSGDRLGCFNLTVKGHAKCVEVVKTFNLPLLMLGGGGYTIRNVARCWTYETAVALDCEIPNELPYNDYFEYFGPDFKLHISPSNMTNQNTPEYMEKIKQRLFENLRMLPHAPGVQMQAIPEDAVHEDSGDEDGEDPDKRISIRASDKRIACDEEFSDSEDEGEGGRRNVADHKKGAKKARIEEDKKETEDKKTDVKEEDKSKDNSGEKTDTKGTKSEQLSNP
human HDAC8, sequence (Q9BY41 whole entry): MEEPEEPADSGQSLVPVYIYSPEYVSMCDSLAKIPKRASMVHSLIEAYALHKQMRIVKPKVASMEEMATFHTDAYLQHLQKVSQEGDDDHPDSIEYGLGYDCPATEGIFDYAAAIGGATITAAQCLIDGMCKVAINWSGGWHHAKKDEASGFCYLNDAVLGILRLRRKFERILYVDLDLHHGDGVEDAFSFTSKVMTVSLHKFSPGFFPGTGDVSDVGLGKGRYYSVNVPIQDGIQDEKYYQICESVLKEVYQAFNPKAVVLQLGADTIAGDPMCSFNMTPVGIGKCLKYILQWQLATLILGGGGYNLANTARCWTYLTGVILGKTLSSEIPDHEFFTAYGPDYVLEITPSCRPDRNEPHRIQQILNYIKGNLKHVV
human HDAC1, sequence (Q13547 whole entry): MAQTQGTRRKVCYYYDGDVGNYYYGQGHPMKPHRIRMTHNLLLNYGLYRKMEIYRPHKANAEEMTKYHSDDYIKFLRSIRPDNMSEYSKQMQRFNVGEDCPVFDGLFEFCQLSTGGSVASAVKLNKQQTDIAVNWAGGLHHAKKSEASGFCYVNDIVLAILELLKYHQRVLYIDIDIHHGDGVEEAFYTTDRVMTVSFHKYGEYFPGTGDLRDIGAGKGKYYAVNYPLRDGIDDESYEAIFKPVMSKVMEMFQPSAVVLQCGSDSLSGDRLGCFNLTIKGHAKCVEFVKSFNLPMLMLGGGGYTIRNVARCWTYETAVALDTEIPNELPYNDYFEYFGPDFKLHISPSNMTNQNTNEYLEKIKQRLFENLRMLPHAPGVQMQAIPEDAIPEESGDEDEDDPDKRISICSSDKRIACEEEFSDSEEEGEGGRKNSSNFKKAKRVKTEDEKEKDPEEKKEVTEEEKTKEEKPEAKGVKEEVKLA
human HDAC3/SMRT heterodimer, sequence (O15379 whole entry): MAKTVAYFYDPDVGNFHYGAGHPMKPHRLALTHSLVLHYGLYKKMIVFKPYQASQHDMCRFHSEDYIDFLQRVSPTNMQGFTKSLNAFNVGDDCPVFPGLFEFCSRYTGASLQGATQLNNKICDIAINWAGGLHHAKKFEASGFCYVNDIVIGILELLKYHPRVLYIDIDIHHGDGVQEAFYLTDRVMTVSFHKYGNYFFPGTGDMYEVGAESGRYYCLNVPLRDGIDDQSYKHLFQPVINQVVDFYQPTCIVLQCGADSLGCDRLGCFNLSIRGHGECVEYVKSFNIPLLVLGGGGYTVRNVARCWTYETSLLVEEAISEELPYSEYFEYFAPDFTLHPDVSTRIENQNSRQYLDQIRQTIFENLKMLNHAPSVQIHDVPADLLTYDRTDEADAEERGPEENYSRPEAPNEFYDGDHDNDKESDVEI
human HDAC3/SMRT heterodimer, sequence (Q9Y618 1-899 partner): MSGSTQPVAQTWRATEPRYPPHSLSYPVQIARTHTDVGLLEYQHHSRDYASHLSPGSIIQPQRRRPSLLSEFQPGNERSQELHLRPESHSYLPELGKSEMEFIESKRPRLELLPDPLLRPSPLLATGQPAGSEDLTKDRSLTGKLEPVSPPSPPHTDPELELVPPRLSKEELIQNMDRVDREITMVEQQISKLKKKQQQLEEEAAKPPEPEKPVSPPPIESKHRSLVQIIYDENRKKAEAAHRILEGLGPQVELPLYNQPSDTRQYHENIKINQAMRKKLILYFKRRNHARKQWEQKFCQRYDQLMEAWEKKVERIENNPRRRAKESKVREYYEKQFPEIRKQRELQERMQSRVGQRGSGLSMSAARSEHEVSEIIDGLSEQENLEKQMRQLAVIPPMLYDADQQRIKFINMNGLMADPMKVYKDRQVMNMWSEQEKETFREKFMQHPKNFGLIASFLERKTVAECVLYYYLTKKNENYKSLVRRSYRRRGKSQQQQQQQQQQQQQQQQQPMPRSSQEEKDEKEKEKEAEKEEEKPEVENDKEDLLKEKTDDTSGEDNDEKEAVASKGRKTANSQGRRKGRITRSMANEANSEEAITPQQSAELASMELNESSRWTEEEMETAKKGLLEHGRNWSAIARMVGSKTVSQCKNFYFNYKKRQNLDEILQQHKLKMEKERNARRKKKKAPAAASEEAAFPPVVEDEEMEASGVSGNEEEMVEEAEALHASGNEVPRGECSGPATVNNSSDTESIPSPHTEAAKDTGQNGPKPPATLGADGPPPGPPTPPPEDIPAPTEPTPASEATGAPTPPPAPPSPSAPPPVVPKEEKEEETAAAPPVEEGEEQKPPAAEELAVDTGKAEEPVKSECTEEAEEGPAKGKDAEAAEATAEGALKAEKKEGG
HDAC6, sequence (Q9UBN7 whole entry): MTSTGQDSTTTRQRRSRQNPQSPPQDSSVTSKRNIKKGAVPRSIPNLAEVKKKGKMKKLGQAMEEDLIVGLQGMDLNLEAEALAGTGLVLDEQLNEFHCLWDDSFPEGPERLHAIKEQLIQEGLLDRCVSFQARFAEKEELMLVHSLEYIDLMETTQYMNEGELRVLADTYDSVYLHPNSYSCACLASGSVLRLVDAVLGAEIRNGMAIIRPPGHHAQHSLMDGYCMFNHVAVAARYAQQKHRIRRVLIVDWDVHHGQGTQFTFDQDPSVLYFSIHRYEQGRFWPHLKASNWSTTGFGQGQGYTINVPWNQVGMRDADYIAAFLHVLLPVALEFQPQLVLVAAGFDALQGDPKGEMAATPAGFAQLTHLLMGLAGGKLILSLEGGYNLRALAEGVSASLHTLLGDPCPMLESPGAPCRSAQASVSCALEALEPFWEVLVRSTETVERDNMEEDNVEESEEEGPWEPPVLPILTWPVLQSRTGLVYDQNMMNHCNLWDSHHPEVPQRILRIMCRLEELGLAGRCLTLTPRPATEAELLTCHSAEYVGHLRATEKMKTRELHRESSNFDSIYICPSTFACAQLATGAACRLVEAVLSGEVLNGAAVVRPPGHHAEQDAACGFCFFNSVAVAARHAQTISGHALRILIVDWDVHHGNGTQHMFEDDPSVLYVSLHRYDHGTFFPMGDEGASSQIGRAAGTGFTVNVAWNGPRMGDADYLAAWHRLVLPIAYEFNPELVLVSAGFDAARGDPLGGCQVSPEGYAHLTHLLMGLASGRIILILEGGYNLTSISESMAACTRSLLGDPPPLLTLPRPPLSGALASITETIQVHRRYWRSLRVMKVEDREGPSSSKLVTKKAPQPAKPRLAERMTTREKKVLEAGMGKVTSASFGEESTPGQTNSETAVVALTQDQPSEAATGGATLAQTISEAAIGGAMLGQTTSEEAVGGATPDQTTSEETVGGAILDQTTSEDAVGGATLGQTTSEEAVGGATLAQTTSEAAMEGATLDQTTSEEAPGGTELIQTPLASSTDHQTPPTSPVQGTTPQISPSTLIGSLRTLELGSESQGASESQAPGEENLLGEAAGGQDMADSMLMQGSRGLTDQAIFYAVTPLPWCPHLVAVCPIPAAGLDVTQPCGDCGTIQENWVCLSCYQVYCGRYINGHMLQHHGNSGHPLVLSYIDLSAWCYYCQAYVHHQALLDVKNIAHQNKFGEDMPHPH

Take `CN[C@@H](CCCCCC(=O)c1ncco1)c1ncc(-c2cc3ccc(=O)n(C)c3cc2OC)[nH]1` [Example 76, (S)-7-methoxy-1-methyl-6-(2-(1-(methylamino)-7-(oxazol-2-yl)-7-oxoheptyl)-1H-imidazol-5-yl)quinolin-2(1H)-one]: the half-maximal effective concentration (EC50) in the assay with KARN cells (Jurkat 2C4) (setting [2]) is 200 nM; with KARN cells (Jurkat 2C4) (setting [3]), 220 nM. Also, the results for the negative logarithm of the IC50 (pIC50) (in assay [1]; at human HDAC1; against HDAC6) were 8.57, 8.66 and less than 6.05, respectively. The results for the IC50 at human HDAC2 and at human HDAC8 were 6.7 nM and greater than 900 nM, respectively.
Consider `Cc1ccc2cc(-c3c[nH]c([C@H](CCCCCC(=O)c4ncco4)NC4CCOCC4)n3)ccc2n1` [Example 79, (S)-7-(5-(2-methylquinolin-6-yl)-1H-imidazol-2-yl)-1-(oxazol-2-yl)-7-((tetrahydro-2H-pyran-4-yl)amino)heptan-1-one], for which the concentration for a half-maximal effect (EC50) with KARN cells (Jurkat 2C4) (setting [4]) is 1000 nM; with KARN cells (Jurkat 2C4) (read-out: Karn EC50 nM 5% NHS), 1300 nM. Further, the negative-log IC50 (pIC50) in assay [1] is 7.92; against human HDAC1, 8.18; on HDAC6 it was no more than 4.35. Also, the IC50 on human HDAC2 turned out to be 35 nM; at human HDAC8 it was 17000 nM.
`Cc1ccc2cc(-c3c[nH]c([C@H](CCCCCC(=O)c4ncco4)NCc4ccccc4)n3)ccc2n1` [Example 81, (S)-7-(benzylamino)-7-(5-(2-methylquinolin-6-yl)-1H-imidazol-2-yl)-1-(oxazol-2-yl)heptan-1-one]: the concentration giving a half-maximal response (EC50) with KARN cells (Jurkat 2C4) (setting [4]) turned out to be 430 nM; in the assay with KARN cells (Jurkat 2C4) (read-out: Karn EC50 nM 5% NHS), 690 nM. For the same compound, the results for the negative-log IC50 (pIC50) (in assay [1]; on human HDAC1; at HDAC6) were 8.43, 8.47 and 4.68, respectively. The IC50 at human HDAC2 was 16 nM; at human HDAC8 it was 4900 nM.
`Cc1ccc2cc(-c3cnc([C@H](CCCCCC(=O)c4ncco4)N4CCOCC4)[nH]3)ccc2n1` [Example 83, (S)-7-(5-(2-methylquinolin-6-yl)-1H-imidazol-2-yl)-7-morpholino-1-(oxazol-2-yl)heptan-1-one]: the values for the concentration for a half-maximal effect (EC50) in the assay with KARN cells (Jurkat 2C4) (setting [2]) and in the assay with KARN cells (Jurkat 2C4) (setting [3]) were 3400 nM and 4200 nM, respectively. For the same compound, the pIC50 in assay [1] was 7.51; against human HDAC1, 7.85; against HDAC6, no more than 4.35. Further, the IC50 at human HDAC2 was found to be 62 nM; at human HDAC8, 12000 nM.
As for `COc1cc2nc(C)ccc2cc1-c1cnc([C@H](CCCCCC(=O)c2ncco2)NC2CC(OC)C2)[nH]1` (stereo partly drawn) [Example 84, (S)-7-(5-(7-methoxy-2-methylquinolin-6-yl)-1H-imidazol-2-yl)-7-((3-methoxycyclobutyl)amino)-1-(oxazol-2-yl)heptan-1-one], the EC50 came out at 490 nM with KARN cells (Jurkat 2C4) (setting [2]) and 540 nM with KARN cells (Jurkat 2C4) (setting [3]). Further, the figures for the pIC50 (in assay [1]; against human HDAC1; at HDAC6) were 8.10, 8.40 and 4.89, respectively. Moreover, the half-inhibitory concentration (IC50) at human HDAC2 was found to be 22 nM; on human HDAC8 it was 3100 nM.
As to `COc1cc2nc(C)ccc2cc1-c1cnc([C@H](CCCCCC(=O)c2ncco2)Nc2ncccn2)[nH]1` [Example 85, (S)-7-(5-(7-methoxy-2-methylquinolin-6-yl)-1H-imidazol-2-yl)-1-(oxazol-2-yl)-7-(pyrimidin-2-ylamino)heptan-1-one], the results for the EC50 in the assay with KARN cells (Jurkat 2C4) (setting [2]) and with KARN cells (Jurkat 2C4) (setting [3]) were 67 nM and 210 nM, respectively. The negative logarithm of the IC50 (pIC50) was 8.82 in assay [1], 8.64 against human HDAC1 and 6.60 on HDAC6. For the same compound, the figures for the 50% inhibitory concentration (IC50) at human HDAC2 and at human HDAC8 were 11 nM and 210 nM, respectively.
On to `COC(=O)N[C@@H](CCCCCC(=O)c1ncco1)c1ncc(-c2cc3ccc(C)nc3cc2OC)[nH]1` [Example 86, (S)-methyl (1-(5-(7-methoxy-2-methylquinolin-6-yl)-1H-imidazol-2-yl)-7-(oxazol-2-yl)-7-oxoheptyl)carbamate], for which the 50% effective concentration (EC50) in the assay with KARN cells (Jurkat 2C4) (setting [2]) is 80 nM; with KARN cells (Jurkat 2C4) (setting [3]), 160 nM. The negative logarithm of the IC50 (pIC50) is 8.82 in assay [1], 8.70 at human HDAC1 and 7.40 against HDAC6. Further, the IC50 on human HDAC2 is 9.9 nM; at human HDAC8 it was 160 nM.

Broadly, the EC50 is the concentration that produces a half-maximal response. By pIC50 is commonly meant the IC50 on a negative log10 scale, so that one unit is a factor of ten. The low end stands for a large IC50, the high end for a small IC50. As a reminder, the IC50 is the concentration at which inhibition is half-maximal.
